Measurements from patent publication US6090787A, “Antithrombotic agents” (Eli Lilly and Company, priority 1999, dated 2000).
Square brackets hold non-standard residues; d marks the D form. Peptide text beside a SMILES is read from it. dPip = O=C(O)[C@H]1CCCCN1; NEtG = CCNCC(=O)O

Columns and labels:
[1] = biological target: T1, factor Xa (Homo sapiens, UniProt P00742); assay: Serine protease selectivity, Kass, factor Xa chromogenic assay; type: biochemical; details: apparent association constant
T1 construct: Human factors X, Xa, IXa, XIa, and XIIa are purchased from Enzyme Research Laboratories; purchased Enzyme Research Laboratories, South Bend, Ind
T1 sequence (P00742 235-488 limits assumed): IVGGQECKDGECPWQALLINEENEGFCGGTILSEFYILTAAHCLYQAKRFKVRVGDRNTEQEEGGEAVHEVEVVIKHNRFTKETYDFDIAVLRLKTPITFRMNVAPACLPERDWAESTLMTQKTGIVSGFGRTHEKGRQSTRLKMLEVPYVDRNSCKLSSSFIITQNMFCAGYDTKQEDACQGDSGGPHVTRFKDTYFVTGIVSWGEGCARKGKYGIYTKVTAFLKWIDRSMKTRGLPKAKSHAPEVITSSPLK
T1 sequence (P00742 41-179 partner limits assumed): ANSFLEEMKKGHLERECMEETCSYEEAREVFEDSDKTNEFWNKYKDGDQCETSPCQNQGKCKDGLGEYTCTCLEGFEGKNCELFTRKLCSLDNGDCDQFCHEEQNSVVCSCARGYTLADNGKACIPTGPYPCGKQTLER
Procedure: (§1) By substantially following the procedures described above for human thrombin, and using other human blood coagulation system serine proteases and proteases of the fibrinolytic system with the appropriate chromogenic substrates, identified below, selectivity of the compounds of the present invention with respect to the coagulation factor serine proteases and with respect to the fibrinolytic system serine proteases are evaluated as well as their substantial lack of interference with serine proteases of the fibrinolytic system. Thrombin inhibitors preferably should spare fibrinolysis induced by urokinase, tissue plasminogen activator (t-PA) and streptokinase. This would be important to the therapeutic use of such agents as an adjunct to streptokinase, t-PA or urokinase thrombolytic therapy and to the use of such agents as an endogenous fibrinolysis-sparing (with respect to t-PA and urokinase) antithrombotic agent. In addition to the lack of interference with the amidase activity of the fibrinolytic proteases, such fibrinolytic system sparing can be studied by the use of human plasma clots and their lysis by the respective fibrinolytic plasminogen activators.
(§2) Human factors X, Xa, IXa, XIa, and XIIa are purchased from Enzyme Research Laboratories, South Bend, Ind.; human urokinase from Leo Pharmaceuticals, Denmark; and recombinant activated Protein C (aPC) is prepared at Eli Lilly and Co. substantially according to U.S. Pat. No. 4,981,952 incorporated by reference herein in its entirety. Chromogenic substrates: N--Benzoyl--Ile--Glu--Gly--Arg--p--nitroanilide (for factor Xa); N--Cbz--D--Arg--Gly--Arg--p--nitroanilide (for factor IXa assay as the factor Xa substrate); Pyroglutamyl--Pro--Arg--p--nitroanilide (for Factor XIa and for aPC); H--D--Pro--Phe--Arg--p--nitroanilide (for factor XIIa); and Pyroglutamyl--Gly--Arg--p--nitroanilide (for urokinase); are purchased from KabiVitrum, Stockholm, Sweden, or from Midwest Biotech, Fishers, Indiana. Bovine trypsin is purchased from Worthington Biochemicals, Freehold, N.J., and human plasma kallikrein from Kabi Vitrum, Stockholm, Sweden. Chromogenic substrate H--D--Pro--Phe--Arg--p--nitroanilide for plasma kallikrein is purchased from Kabi Vitrum, Stockholm, Sweden. N--Benzoyl--Phe--Val--Arg--p--nitroanilide, the substrate for human thrombin and for trypsin, is synthesized according to procedures described above for the compounds of the present invention, using known methods of peptide coupling from commercially available reactants or purchased from Midwest Biotech, Fishers, Ind.

[2] = system: human plasma; assay: Human plasma anticoagulation, activated partial thromboplastin time (APTT); details: concentration required to double the APTT, linear extrapolation
Procedure: (§3) Dog plasma and rat plasma is obtained from conscious mixed-breed hounds (either sex, Hazelton-LRE, Kalamazoo, Mich., U.S.A.) or from anesthetized male Sprague-Dawley rats (Harlan Sprague-Dawley, Inc., Indianapolis, Ind., U.S.A.) by venipuncture into 3.8 percent citrate. Fibrinogen is prepared from in-date ACD human blood as the fraction I-2 according to previous procedures and specifications. Smith, Biochem. J., 185, 1-11 (1980); and Smith, et al., Biochemistry, 11, 2958-2967 (1972). Human fibrinogen is also purchased as 98 percent pure/plasmin free from American Diagnostica, Greenwich, Conn. Coagulation reagents ACTIN, Thromboplastin, and Human plasma are from Baxter Healthcare Corp., Dade Division, Miami, Fla. Bovine thrombin from Parke-Davis ([…], Mich.) is used for coagulation assays in plasma.
(§4) Coagulation assay procedures are as previously described. Smith, et al., Thrombosis Research, 50, 163-174 (1988). A CoAScreener coagulation instrument (American LABor, Inc.) is used for all coagulation assay measurements. The prothrombin time (PT) is measured by adding 0.05 mL saline and 0.05 mL Thromboplastin-C reagent to 0.05 mL test plasma. The activated partial thromboplastin time (APTT) is measured by incubation of 0.05 mL test plasma with 0.05 mL Actin reagent for 120 seconds followed by 0.05 mL CaCl2 (0.02 M). The thrombin time (TT) is measured by adding 0.05 mL saline and 0.05 mL thrombin (10 NIH units/mL) to 0.05 mL test plasma. The compounds of formula I are added to human or animal plasma over a wide range of concentrations to determine prolongation effects on the APTT, PT, and TT assays. Linear extrapolations are performed to estimate the concentrations required to double the clotting time for each assay.

[3] = system: human plasma; assay: Human plasma anticoagulation, thrombin time (TT); details: concentration required to double the thrombin time, linear extrapolation
Procedure: as §3, §4

[4] = system: human plasma; assay: Human plasma anticoagulation, prothrombin time (PT); details: concentration required to double the PT, linear extrapolation
Procedure: as §3, §4

[5] = biological target: T2, Bovine trypsin (Bos taurus, UniProt P00760); assay: Serine protease selectivity, Kass, trypsin chromogenic assay; type: biochemical; details: apparent association constant
T2 construct: purchased Worthington Biochemicals, Freehold, N.J
T2 sequence (P00760 24-246): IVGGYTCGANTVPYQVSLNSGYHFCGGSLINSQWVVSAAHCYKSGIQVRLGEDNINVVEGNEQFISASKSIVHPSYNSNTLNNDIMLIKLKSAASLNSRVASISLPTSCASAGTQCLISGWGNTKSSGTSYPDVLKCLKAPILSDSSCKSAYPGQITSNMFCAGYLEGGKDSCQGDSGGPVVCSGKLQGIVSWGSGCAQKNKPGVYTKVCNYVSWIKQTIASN
Procedure: as §1, §2

[6] = biological target: T3, human thrombin (Homo sapiens, UniProt P00734); assay: Inhibition of amidase activity of thrombin (Kass), chromogenic substrate; type: biochemical; details: apparent association constant, mean over a range of concentrations
T3 construct: purified human thrombin, Enzyme Research Laboratories; purchased Enzyme Research Laboratories, South Bend, Indiana
Procedure: The assay is carried out by mixing 50 μL buffer (0.03 M Tris, 0.15 M NaCl, pH 7.4) with 25 μL of bovine thrombin or human thrombin solution (0.21 mg/mL of thrombostat bovine thrombin, Parke-Davis, or purified human thrombin, Enzyme Research Laboratories, South Bend, Indiana, at about 8 NIH units/mL, in the same buffer) and 25 μL of test compound in a solvent (in 50% aqueous methanol, v:v). The 150 μL of an aqueous solution of the chromogenic substrate (at 0.25 mg/mL) are added and the rates of hydrolysis of the substrate are measured by monitoring the reactions at 405 nm for the release of p-nitroaniline. Standard curves are constructed by plotting free thrombin concentration against hydrolysis rate. The hydrolysis rates observed with test compounds are then converted to "free thrombin" values in the respective assays by use of the standard curves. The bound thrombin (bound to test compound) is calculated by subtracting the amount of free thrombin observed in each assay from the known initial amount of thrombin used in the assay. The amount of free inhibitor in each assay is calculated by subtracting the number of moles of bound thrombin from the number of moles of added inhibitor (test compound).
The Kass value is the hypothetical equilibrium constant for the reaction between thrombin and the test compound (I). [formula]
Kass is calculated for a range of concentrations of test compounds and the mean value is reported in units of liter per mole.

[7] = biological target: T4, Human plasmin (Homo sapiens, UniProt P00747); assay: Fibrinolytic protease selectivity, Kass, plasmin chromogenic assay; type: biochemical; details: apparent association constant
T4 construct: Human plasmin is purchased from Boehringer Mannheim; purchased Boehringer Mannheim, Indianapolis, Indiana
T4 sequence (P00747 581-810 limits assumed): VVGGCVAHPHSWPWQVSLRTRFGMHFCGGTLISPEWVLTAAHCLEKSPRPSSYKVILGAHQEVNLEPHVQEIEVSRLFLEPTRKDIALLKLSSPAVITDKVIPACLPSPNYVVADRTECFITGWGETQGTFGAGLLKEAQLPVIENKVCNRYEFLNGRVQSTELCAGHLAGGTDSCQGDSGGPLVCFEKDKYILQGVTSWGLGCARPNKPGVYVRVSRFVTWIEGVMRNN
T4 sequence (P00747 97-580 partner limits assumed): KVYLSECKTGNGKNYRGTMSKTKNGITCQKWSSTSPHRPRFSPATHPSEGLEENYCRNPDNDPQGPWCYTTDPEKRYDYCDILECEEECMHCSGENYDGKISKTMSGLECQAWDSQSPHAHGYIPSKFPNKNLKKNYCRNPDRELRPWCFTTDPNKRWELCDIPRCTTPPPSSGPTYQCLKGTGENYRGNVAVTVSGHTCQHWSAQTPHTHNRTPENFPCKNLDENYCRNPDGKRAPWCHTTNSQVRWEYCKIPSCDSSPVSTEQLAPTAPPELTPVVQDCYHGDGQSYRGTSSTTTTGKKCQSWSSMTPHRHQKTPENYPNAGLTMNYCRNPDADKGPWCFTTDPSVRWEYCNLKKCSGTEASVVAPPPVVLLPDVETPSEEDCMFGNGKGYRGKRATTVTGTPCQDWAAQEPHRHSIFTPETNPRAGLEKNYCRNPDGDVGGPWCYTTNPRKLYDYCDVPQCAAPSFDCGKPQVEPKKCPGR
Procedure: as §1
(§5) Human plasmin is purchased from Boehringer Mannheim, Indianapolis, Indiana; nt-PA is purchased as single chain activity reference from American Diagnostica, Greenwich, Conn.; modified-t-PA6 (mt-PA6) is prepared at Eli Lilly and Company by procedure known in the art (See, Burck, et al., J. Biol. Chem., 265, […] (1990). Plasmin chromogenic substrate H--D--Val--Leu--Lys--p--nitroanilide and tissue plasminogen activator (t-PA) substrate H--D--Ile--Pro--Arg--p--nitroanilide are purchased from Kabi Vitrum, Stockholm, Sweden.

[8] = biological target: T5, tissue plasminogen activator (t-PA) (Homo sapiens, UniProt P00750); assay: Fibrinolytic protease selectivity, Kass, t-PA chromogenic assay; type: biochemical; details: apparent association constant
T5 construct: purchased American Diagnostica, Greenwich, Conn
T5 sequence (P00750 36-562): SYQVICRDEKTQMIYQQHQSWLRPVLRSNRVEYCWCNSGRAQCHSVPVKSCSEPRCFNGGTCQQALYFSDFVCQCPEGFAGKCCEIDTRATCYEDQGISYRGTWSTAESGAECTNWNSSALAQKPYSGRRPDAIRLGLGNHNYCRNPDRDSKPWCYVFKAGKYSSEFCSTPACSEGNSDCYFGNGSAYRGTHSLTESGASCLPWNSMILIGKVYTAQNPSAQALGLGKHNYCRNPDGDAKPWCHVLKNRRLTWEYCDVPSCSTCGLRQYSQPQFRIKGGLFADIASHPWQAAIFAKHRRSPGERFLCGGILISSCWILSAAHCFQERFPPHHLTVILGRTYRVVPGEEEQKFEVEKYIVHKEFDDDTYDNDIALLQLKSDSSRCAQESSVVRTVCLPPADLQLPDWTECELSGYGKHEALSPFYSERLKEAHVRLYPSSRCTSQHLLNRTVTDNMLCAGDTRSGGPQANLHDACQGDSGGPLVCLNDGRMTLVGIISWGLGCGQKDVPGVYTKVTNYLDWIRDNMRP
Procedure: as §1, §5

Compound | Enzyme Kass Xa [1] [L/mol × 10^6] | Enzyme Kass Trypsin [5] [L/mol × 10^6] | Enzyme Kass Human Thrombin [6] [L/mol × 10^6] | Enzyme Kass Plasmin [7] [L/mol × 10^6] | Enzyme Kass t-PA [8] [L/mol × 10^6] | Human Plasma Anticoagulation 2 × Clotting time APTT [2] | Human Plasma Anticoagulation 2 × Clotting time TT [3] [ng/mL] | Human Plasma Anticoagulation 2 × Clotting time PT [4]
Cl.Cl.N=C(N)NCCC[C@@H](C=O)NC(=O)CN(CCCCC(=O)O)C(=O)[C@H]1CCCCN1 [Example 15, D--hPro--N(CH2 CH2 CH2 CH2 COOH)Gly--ArgH.2HCl] | 0.078 | 0.99 | 1.8 | 0.020 | 0.001 | 15,000 ng/mL | 670 | 21,000 ng/mL
CC(C)N(CC(=O)NC(C=O)CCCNC(=N)N)C(=O)C1CCCCN1.Cl.Cl [Example 4, D--hPro--N(i--Pr)Gly--ArgH.2HCl] | 0.074 | 0.5 | 9.7 | 0.031 | 0.001 | 12,000 ng/mL | 230 | 14,000 ng/mL
Cl.Cl.N=C(N)NCCC[C@@H](C=O)NC(=O)CN(C(=O)[C@H]1CCCCN1)c1ccccc1 [Example 11, D--hPro--N(Ph)Gly--ArgH.2HCl] | 0.21 | 1.1 | 16 | 0.036 | 0.0039 | 2,200 ng/mL | 120 | 3,100 ng/mL

Further lines, with some results ahead:

Enzyme Kass Xa [1] [L/mol × 10^6] | Enzyme Kass Trypsin [5] [L/mol × 10^6] | Enzyme Kass Human Thrombin [6] [L/mol × 10^6] | Enzyme Kass Plasmin [7] [L/mol × 10^6] | Enzyme Kass t-PA [8] [L/mol × 10^6] | Compound | Human Plasma Anticoagulation 2 × Clotting time APTT [2] | Human Plasma Anticoagulation 2 × Clotting time TT [3] [ng/mL] | Human Plasma Anticoagulation 2 × Clotting time PT [4]
0.039 | 1.3 | 33 | 0.013 | 0.005 | CCN(CC(=O)N[C@H](C=O)CCCNC(=N)N)C(=O)[C@H]1CCCCN1.Cl.Cl [Example 2, D-homoprolyl-N-ethylglycyl-L-argininal dihydrochloride] (H-[dPip]-[NEtG]-Arg-aldehyde) | 2,600 ng/mL | 160 | 5,000 ng/mL
0.062 | 0.60 | 1.2 | 0.016 | 0.001 | Cl.Cl.N=C(N)NCCC[C@@H](C=O)NC(=O)CN(CCCC(=O)O)C(=O)[C@H]1CCCCN1 [Example 14, D--hPro--N(CH2 CH2 CH2 COOH)Gly--ArgH.2HCl] | 20,000 ng/mL | 700 | 30,000 ng/mL
0.14 | 0.55 | 3.3 | 0.060 | 0.0064 | Cc1ccccc1N(CC(=O)N[C@H](C=O)CCCN=C(N)N)C(=O)[C@H]1CCCCN1.Cl.Cl [Example 12, D--hPro--N(o--Me--Ph)Gly--ArgH.2HCl] | 4,900 ng/mL | 370 | 8,200 ng/mL
0.31 | 6.0 | 24 | 0.12 | 0.006 | Cl.Cl.N=C(N)NCCC[C@@H](C=O)NC(=O)CN(CCCc1ccccc1)C(=O)[C@H]1CCCCN1 [Example 9, D--hPro--N(PhCH2 CH2 CH2)Gly--ArgH.2HCl] | 2,200 ng/mL | 55 | 3,000 ng/mL
3.3 | 22 | 37 | 1.5 | 1.2 | CCS(=O)(=O)N[C@H](Cc1ccccc1)C(=O)N(C)CC(=O)N[C@H](C=O)CCCNC(=N)N.Cl.Cl [Example 16, N-(ethylsulfonyl)-D-phenylalanyl-N-methylglycyl-L-argininal dihydrochloride] | 1,200 ng/mL | 30 | 1,600 ng/mL
